One data set concerns the target T1, neprilysin (Homo sapiens, UniProt P08473).
T1 construct: purchased R&D Systems 1182-ZNC-010
The data set can be described thus: Proteolytic resistance to neprilysin. Particulars: pH 8.3. Type of data set: in vitro ADME. The procedure:
10.0 μg (˜10 units) recombinant Neprilysin (R&D Systems: 1182-ZNC-010) was reconstituted to 100 μL (100 μg/mL, ˜100 units/mL) in assay buffer (50 mM Tris, 50 mM NaCl, 50 mM NaHCO3, adjusted to pH 8.3) to give the enzyme stock solution. Peptide stock solutions were prepared to a concentration of ˜250 μM (˜1.0 mg/mL of 4 kDa peptide) in assay buffer. 100 μL (10 μg, ˜10 units) of neprilysin stock solution was added to 100 μL of peptide stock solution (1.0 mg/mL, ˜100 μg of peptide) and the mixture was co-incubated in a temperature regulated incubator at 37° C. for the duration of the experiment. 25 μL aliquots (˜12.5 μg initial peptide) of the peptide-enzyme mixture were periodically withdrawn (t=0, 30 mins, 1 h, 2 h, 4 h and 24 h) and quenched immediately by addition to an equal volume ([…]) of 10% TFA (v/v) in 1:1 water/acetonitrile to arrest proteolytic activity. The quenched aliquot centrifuged at 7800 rpm, and 30 μL of the supernatant was analyzed by analytical RP-HPLC as follows: Analytical RP-HPLC method: Agilent Polaris C8-A column (4.6×100 mm, 3 micron) eluted with a linear binary gradient of 10-90% MeCN (0.1% TFA v/v) in water (0.1% TFA v/v) over either 10 or 15 mins at 1.5 mL min^−1 at 40° C. with detection by UV absorption at 210 nm. Manual integration (AUC) allowed estimation of remaining intact peptide over the time course of the experiment.

Data set [1] addresses T2, human glucagon receptor (hGCGR) (Homo sapiens, UniProt P47871).
T2 construct: expressed in transfected cells; host or cells: CHO
The data set can be described thus: cAMP production (HTRF) in CHO cells expressing human glucagon receptor. Particulars: Table 8, peptides modified at position 24, geometric mean, CHO cells, read-out: hGluc-R EC50. The format is cell-based. For orientation: Cyclic AMP is a second messenger, typically raised through Gs and lowered through Gi signalling.

Data set [2] deals with T3, human GLP-1 receptor (hGLP-1R) (Homo sapiens, UniProt P43220).
T3 construct: expressed in transfected cells; host or cells: CHO
The data set is described as follows: cAMP production (HTRF) in CHO cells expressing human GLP-1 receptor. The format is cell-based.

Structures are written as SMILES. Starred links: 1 amine or outer side, 2 acyl side, 3 side chain; linkers in the order of their positions; H or OH if unused. Non-standard residues stand in square brackets, D forms with d. Residues, ends and D or L forms follow the SMILES beside them. Groups on a side chain read outwards from the residue. *: point of attachment. C20 diacid = O=C(O)CCCCCCCCCCCCCCCCCCC(=O)*; γGlu = O=C(O)[C@H](CCC(=O)[*:2])N[*:1]; αMeF = C[C@](N)(Cc1ccccc1)C(=O)O; AEEA = NCCOCCOCC(=O)O; Aib = CC(C)(N)C(=O)O

The values that follow come from US12630600B2 (MEDIMMUNE LIMITED, priority 2022, dated 2026).

T1 sequence (P08473 whole entry): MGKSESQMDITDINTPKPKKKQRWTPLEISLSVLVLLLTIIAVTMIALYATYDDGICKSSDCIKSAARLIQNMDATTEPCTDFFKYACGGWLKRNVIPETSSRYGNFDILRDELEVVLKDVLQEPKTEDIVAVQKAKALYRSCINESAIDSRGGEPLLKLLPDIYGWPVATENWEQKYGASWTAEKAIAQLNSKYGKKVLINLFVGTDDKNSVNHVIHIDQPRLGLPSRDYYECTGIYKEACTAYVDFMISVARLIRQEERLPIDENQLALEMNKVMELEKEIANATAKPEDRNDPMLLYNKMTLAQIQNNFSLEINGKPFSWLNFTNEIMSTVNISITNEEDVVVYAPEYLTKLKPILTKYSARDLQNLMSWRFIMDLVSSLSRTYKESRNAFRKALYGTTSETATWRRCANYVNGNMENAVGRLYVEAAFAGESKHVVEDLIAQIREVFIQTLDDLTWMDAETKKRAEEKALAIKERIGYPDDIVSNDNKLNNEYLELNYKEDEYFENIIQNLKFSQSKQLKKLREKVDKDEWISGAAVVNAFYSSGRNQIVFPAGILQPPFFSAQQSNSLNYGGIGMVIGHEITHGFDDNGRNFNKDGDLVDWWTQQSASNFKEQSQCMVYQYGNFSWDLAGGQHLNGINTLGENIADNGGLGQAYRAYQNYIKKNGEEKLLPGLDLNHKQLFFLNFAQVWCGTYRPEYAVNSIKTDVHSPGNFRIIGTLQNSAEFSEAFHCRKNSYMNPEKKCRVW
T3 sequence (P43220 24-463): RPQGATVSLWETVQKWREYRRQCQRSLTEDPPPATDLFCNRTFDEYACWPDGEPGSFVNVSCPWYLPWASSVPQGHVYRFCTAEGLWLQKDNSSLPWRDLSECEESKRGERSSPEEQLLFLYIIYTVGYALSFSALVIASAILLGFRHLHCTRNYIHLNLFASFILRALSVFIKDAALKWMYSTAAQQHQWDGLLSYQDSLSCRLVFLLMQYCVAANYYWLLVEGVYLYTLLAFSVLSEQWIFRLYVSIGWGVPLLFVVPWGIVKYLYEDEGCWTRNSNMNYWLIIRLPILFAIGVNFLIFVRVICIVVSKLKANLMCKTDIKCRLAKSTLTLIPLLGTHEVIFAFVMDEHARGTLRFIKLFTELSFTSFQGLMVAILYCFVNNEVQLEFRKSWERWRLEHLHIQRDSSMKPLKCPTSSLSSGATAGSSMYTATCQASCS
T2 sequence (P47871 26-477): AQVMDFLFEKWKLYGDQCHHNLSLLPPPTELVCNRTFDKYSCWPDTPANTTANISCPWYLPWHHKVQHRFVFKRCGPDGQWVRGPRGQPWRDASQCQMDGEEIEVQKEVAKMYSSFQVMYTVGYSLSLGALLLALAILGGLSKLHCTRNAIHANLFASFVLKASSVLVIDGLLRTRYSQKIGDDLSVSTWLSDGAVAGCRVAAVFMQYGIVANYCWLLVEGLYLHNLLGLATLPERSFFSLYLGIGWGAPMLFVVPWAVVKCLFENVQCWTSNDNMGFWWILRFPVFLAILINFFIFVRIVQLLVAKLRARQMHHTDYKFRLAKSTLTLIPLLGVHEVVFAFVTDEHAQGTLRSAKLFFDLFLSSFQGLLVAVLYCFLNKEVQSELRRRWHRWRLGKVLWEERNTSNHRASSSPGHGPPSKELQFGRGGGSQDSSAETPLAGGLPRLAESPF

On to `CC[C@H](C)[C@H](NC(=O)C(C)(C)NC(=O)[C@H](CCC(N)=O)NC(=O)[C@@H](NC(=O)[C@](C)(Cc1ccccc1)NC(=O)[C@H](CC(=O)O)NC(=O)[C@H](CCCCNC(=O)COCCOCCNC(=O)COCCOCCNC(=O)CC[C@H](NC(=O)CC[C@H](NC(=O)CCCCCCCCCCCCCCCCCCC(=O)O)C(=O)O)C(=O)O)NC(=O)[C@H](C)NC(=O)[C@H](C)NC(=O)[C@H](CCCNC(=N)N)NC(=O)[C@H](CO)NC(=O)[C@H](CC(=O)O)NC(=O)[C@H](CC(C)C)NC(=O)[C@H](Cc1ccc(O)cc1)NC(=O)[C@H](CCCCN)NC(=O)[C@H](CO)NC(=O)[C@@H](NC(=O)[C@H](CC(=O)O)NC(=O)[C@H](CO)NC(=O)[C@@H](NC(=O)[C@](C)(Cc1ccccc1)NC(=O)[C@H](CO)NC(=O)CNC(=O)[C@H](Cc1c[nH]cn1)NC(=O)C(C)(C)NC(=O)[C@@H](N)Cc1c[nH]cn1)[C@@H](C)O)C(C)C)C(C)C)C(=O)N[C@@H](C)C(=O)N[C@@H](CC(N)=O)C(=O)N[C@H](C(N)=O)[C@@H](C)O` [Peptide 283] (H-H[Aib]HGS[αMeF]TSDVSKYLDSRAAK([AEEA-AEEA-γGlu-γGlu-C20 diacid])D[αMeF]VQ[Aib]IANT-NH2), for which the “% intact peptide over time, Neprilysin” value at neprilysin was determined as 100%.

As to `CC[C@H](C)[C@H](NC(=O)C(C)(C)NC(=O)[C@H](CCC(N)=O)NC(=O)[C@@H](NC(=O)[C@](C)(Cc1ccccc1)NC(=O)[C@H](CC(=O)O)NC(=O)[C@H](CCCCNC(=O)COCCOCCNC(=O)COCCOCCNC(=O)CC[C@H](NC(=O)CC[C@H](NC(=O)CCCCCCCCCCCCCCCCCCC(=O)O)C(=O)O)C(=O)O)NC(=O)[C@H](C)NC(=O)[C@H](C)NC(=O)[C@H](CCCNC(=N)N)NC(=O)[C@H](CO)NC(=O)[C@H](CC(=O)O)NC(=O)[C@H](CC(C)C)NC(=O)[C@](C)(Cc1ccccc1)NC(=O)[C@H](CCCCN)NC(=O)[C@H](CO)NC(=O)[C@@H](NC(=O)[C@H](CC(=O)O)NC(=O)[C@H](CO)NC(=O)[C@@H](NC(=O)[C@H](Cc1ccccc1)NC(=O)[C@H](CO)NC(=O)CNC(=O)[C@H](Cc1c[nH]cn1)NC(=O)C(C)(C)NC(=O)[C@@H](N)Cc1c[nH]cn1)[C@@H](C)O)C(C)C)C(C)C)C(=O)N[C@@H](C)C(=O)N[C@@H](CC(N)=O)C(=O)N[C@H](C(N)=O)[C@@H](C)O` [Peptide 282] (H-H[Aib]HGSFTSDVSK[αMeF]LDSRAAK([AEEA-AEEA-γGlu-γGlu-C20 diacid])D[αMeF]VQ[Aib]IANT-NH2), the “% intact peptide over time, Neprilysin” value on neprilysin was determined as 100%.

In the case of `CC[C@H](C)[C@H](NC(=O)C(C)(C)NC(=O)[C@H](CCCCNC(=O)COCCOCCNC(=O)COCCOCCNC(=O)CC[C@H](NC(=O)CC[C@H](NC(=O)CCCCCCCCCCCCCCCCCCC(=O)O)C(=O)O)C(=O)O)NC(=O)[C@@H](NC(=O)[C@](C)(Cc1ccccc1)NC(=O)[C@H](CC(=O)O)NC(=O)[C@H](CCC(N)=O)NC(=O)[C@H](C)NC(=O)[C@H](C)NC(=O)[C@H](CCCNC(=N)N)NC(=O)[C@H](CO)NC(=O)[C@H](CC(=O)O)NC(=O)[C@H](CC(C)C)NC(=O)[C@](C)(Cc1ccccc1)NC(=O)[C@H](CCCCN)NC(=O)[C@H](CO)NC(=O)[C@@H](NC(=O)[C@H](CC(=O)O)NC(=O)[C@H](CO)NC(=O)[C@@H](NC(=O)[C@](C)(Cc1ccccc1)NC(=O)[C@H](CO)NC(=O)CNC(=O)[C@H](Cc1c[nH]cn1)NC(=O)C(C)(C)NC(=O)[C@@H](N)Cc1c[nH]cn1)[C@@H](C)O)C(C)C)C(C)C)C(=O)N[C@@H](C)C(=O)N[C@@H](CC(N)=O)C(=O)N[C@H](C(=O)NCC(=O)NCC(N)=O)[C@@H](C)O` [Peptide 376] (H-H[Aib]HGS[αMeF]TSDVSK[αMeF]LDSRAAQD[αMeF]VK([AEEA-AEEA-γGlu-γGlu-C20 diacid])[Aib]IANTGG-NH2; N-terminus assumed), the EC50 (in general, the concentration at which the effect is half-maximal) came to 0.853 nM in data set [1] and 0.156 nM in data set [2] (Table 8, peptides modified at position 24, geometric mean, CHO cells, cAMP, read-out: hGLP-1R EC50). In addition, the “% Relative Potency Ratio” value in data set [2] (Table 8, % GLP-1R activity relative to GLP-1 / % GlucR activity relative to glucagon) is recorded as 10.8.
